Source: ChEMBL document CHEMBL2331204, “Fluorinated N,N'-diarylureas as AMPK activators” (Bioorg Med Chem Lett, 2013)
Calls of active or inactive are those of the source. The rule behind the calls is not given here.

What was measured:
[1] = molecular target: 5'-AMP-activated protein kinase catalytic subunit alpha-1 (Homo sapiens) (UniProt Q13131); assay: Activation of AMPKalpha in human LS 174T cells assessed as phosphorylation at T172 at 1 to 3 uM by Western blotting analysis relative to urea-3,4-diCl; format: cell-based; settings: LS174T
Sequence of 5'-AMP-activated protein kinase catalytic subunit alpha-1 (Homo sapiens) (Q13131 whole entry, looked up): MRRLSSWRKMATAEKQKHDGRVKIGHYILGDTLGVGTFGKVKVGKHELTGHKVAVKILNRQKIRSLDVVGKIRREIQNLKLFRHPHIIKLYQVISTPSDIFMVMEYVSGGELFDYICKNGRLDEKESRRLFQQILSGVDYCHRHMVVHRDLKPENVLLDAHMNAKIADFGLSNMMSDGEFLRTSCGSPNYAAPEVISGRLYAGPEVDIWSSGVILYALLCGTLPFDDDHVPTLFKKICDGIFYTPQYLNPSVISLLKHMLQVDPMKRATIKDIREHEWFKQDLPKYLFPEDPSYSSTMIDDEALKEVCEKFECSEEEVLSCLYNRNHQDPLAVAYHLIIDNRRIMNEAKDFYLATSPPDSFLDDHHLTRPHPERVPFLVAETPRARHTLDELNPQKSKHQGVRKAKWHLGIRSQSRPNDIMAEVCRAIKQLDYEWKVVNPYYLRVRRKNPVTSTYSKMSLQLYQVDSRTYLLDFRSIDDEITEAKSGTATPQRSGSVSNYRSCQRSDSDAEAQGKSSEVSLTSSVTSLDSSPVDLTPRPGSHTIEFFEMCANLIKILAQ

[2] = molecular target: 5'-AMP-activated protein kinase catalytic subunit alpha-1 (Homo sapiens) (UniProt Q13131); assay: Activation of AMPKalpha in human LS 174T cells assessed as phosphorylation at T172 at 1 to 3 uM by Western blotting analysis; format: cell-based; settings: LS174T
LS174T [3] = assay: Inhibition of p70S6K in human LS 174T cells assessed as decrease in S6 phosphorylation by Western blotting analysis; format: cell-based
LS174T [4] = assay: Inhibition of p70S6K phosphorylation in human LS 174T cells by Western blotting analysis; format: cell-based
LS174T [5] = assay: Cytotoxicity against human LS 174T cells assessed as growth inhibition after 2 to 4 days; format: functional, cell-based
SW480 = assay: Cytotoxicity against human SW480 cells assessed as growth inhibition after 2 to 4 days; format: functional, cell-based
LS174T [6] = assay: Activation of AKT in human LS 174T cells assessed as phosphorylation at Ser473 at 3 uM by Western blotting analysis; format: cell-based

Compound `O=C(Nc1ccc(OC(F)(F)F)cc1)Nc1cc(Cl)c(Cl)c(Cl)c1` has a fold change (FC) [1] of 0.96.
`O=C(Nc1ccc(OC(F)(F)F)cc1)Nc1cc(F)c(F)c(F)c1F` showed a fold change (FC) [1] of 0.8.
With `CNC(=O)c1cc(Oc2ccc(NC(=O)Nc3ccc(Cl)c(C(F)(F)F)c3)cc2)ccn1` the Activity [2] was “inactive”, the inhibition (LS174T [3]) was “Active” and the inhibition (LS174T [4]) was “Active”.
`N#Cc1ccc(NC(=O)Nc2ccc(SC(F)(F)F)cc2)cc1` was tested, and the fold change (FC) [1] was 1.05.
`O=C(Nc1ccc(Cl)cc1)Nc1ccc(SC(F)(F)F)cc1` showed a fold change (FC) [1] of 0.71.
With `N#Cc1cc(NC(=O)Nc2ccc(SC(F)(F)F)cc2)ccc1F` the fold change (FC) [1] was 0.96.
`O=C(Nc1cc(F)cc(F)c1)Nc1cccc(SC(F)(F)F)c1` was tested, and the fold change (FC) [1] was 1.83.
With `O=C(Nc1ccc(SC(F)(F)F)cc1)Nc1ccc(Cl)c(C(F)(F)F)c1` the fold change (FC) [1] was 1.64.
Compound `O=C(Nc1ccc(SC(F)(F)F)cc1)Nc1cc(F)c(F)cc1F` has a fold change (FC) [1] of 1.21.
With `O=C(Nc1ccc(SC(F)(F)F)cc1)Nc1ccc(F)c(C(F)(F)F)c1` the fold change (FC) [1] was 1.52.
For `O=C(Nc1ccc(SC(F)(F)F)cc1)Nc1cc(F)cc(F)c1`, the fold change (FC) [1] was 1.14.
Work on `O=C(Nc1ccc(OC(F)(F)F)cc1)Nc1ccc(SC(F)(F)F)c(Cl)c1` yielded a fold change (FC) [1] of 2.6.
In the case of `O=C(Nc1ccc(SC(F)(F)F)cc1)Nc1cc(F)c(F)c(F)c1`, the “growth inhibition (GI)” value (LS174T [5]) is reported as “Active”, the “growth inhibition (GI)” value (SW480) is reported as “Active” and the fold change (FC) [1] is reported as 2.02.
`O=C(Nc1ccc(SC(F)(F)F)cc1)Nc1ccc(F)c(Cl)c1` gave a fold change (FC) [1] of 1.05.
For `O=C(Nc1ccc(SC(F)(F)F)cc1)Nc1cc(F)c(F)c(F)c1F`, the fold change (FC) [1] was 2.48.
`O=C(Nc1ccc(OC(F)(F)F)cc1)Nc1ccc(C(F)(F)F)cc1` was tested, and the fold change (FC) [1] was 2.37.
Compound `O=C(Nc1ccc(C(F)(F)F)cc1)Nc1cc(F)c(F)c(F)c1` has a fold change (FC) [1] of 4.
With `O=C(Nc1ccc(SC(F)(F)F)cc1)Nc1ccc(C(F)(F)F)cc1` the fold change (FC) [1] was 1.19.
`O=C(Nc1ccc(OC(F)(F)F)cc1)Nc1cc(Cl)cc(Cl)c1` gave a fold change (FC) [1] of 0.82.
`O=C(Nc1ccc(SC(F)(F)F)cc1)Nc1cccc(F)c1` showed a fold change (FC) [1] of 0.74.
Compound `O=C(Nc1ccc(SC(F)(F)F)cc1)Nc1cc(Cl)c(Cl)c(Cl)c1` has a fold change (FC) [1] of 2.32.
Compound `O=C(Nc1ccc(C(F)(F)F)cc1)Nc1cccc(SC(F)(F)F)c1` has a fold change (FC) [1] of 2.16.
Compound `O=C(Nc1cc(Cl)cc(Cl)c1)Nc1cccc(SC(F)(F)F)c1` has a fold change (FC) [1] of 1.94.
In the case of `O=C(Nc1ccc(SC(F)(F)F)cc1)Nc1ccc(Cl)c(Cl)c1`, the “growth inhibition (GI)” value (LS174T [5]) is reported as “Active”, the “growth inhibition (GI)” value (SW480) is reported as “Active” and the Activity [2] is reported as “Active”. For the same compound, the inhibition (LS174T [3]) was “Active”, the inhibition (LS174T [4]) was “Active” and the Activity (LS174T [6]) was “inactive”.
Work on `O=C(Nc1ccc(OC(F)(F)F)cc1)Nc1cc(F)cc(F)c1` yielded a fold change (FC) [1] of 1.44.
With `O=C(Nc1ccc(SC(F)(F)F)cc1)Nc1cc(Cl)cc(Cl)c1` the fold change (FC) [1] was 1.59.
`O=C(Nc1ccc(SC(F)(F)F)cc1)Nc1cccc(Cl)c1F` gave a fold change (FC) [1] of 0.72.
Compound `O=C(Nc1ccc(SC(F)(F)F)cc1)Nc1c(F)c(F)c(C(=O)O)c(F)c1F` has a fold change (FC) [1] of 0.86.
With `O=C(Nc1ccc(OC(F)(F)F)cc1)Nc1cc(F)c(F)c(F)c1` the fold change (FC) [1] was 0.99.
`O=C(Nc1ccc(SC(F)(F)F)cc1)Nc1ccc(SC(F)(F)F)c(Cl)c1` gave a fold change (FC) [1] of 0.93.
Compound `O=C(Nc1ccc(SC(F)(F)F)cc1)Nc1ccc(F)c(F)c1` has a fold change (FC) [1] of 1.11.
